Measurements taken from PubChem BioAssay AID1259407 (Chemical Carcinogenesis Research Information System (CCRIS), 2018).
Calls of active or inactive are those of the source. No rule for the calls is given here.

System: CCRIS mutagenicity, Ames/micronucleus/aberration tests
Assay: CCRIS mutagenicity studies
[1] = Test System: AMES SALMONELLA TYPHIMURIUM, Strain/Indicator: TA98, Metabolic Activation: HAMSTER, LIVER, S-9, AROCLOR 1254, Method: STANDARD PLATE
[2] = Test System: AMES SALMONELLA TYPHIMURIUM, Strain/Indicator: TA98, Metabolic Activation: NONE, Method: STANDARD PLATE
[3] = Test System: AMES SALMONELLA TYPHIMURIUM, Strain/Indicator: TA98, Metabolic Activation: RAT, LIVER, S-9, AROCLOR 1254, Method: STANDARD PLATE
[4] = Test System: AMES SALMONELLA TYPHIMURIUM, Strain/Indicator: TA100, Metabolic Activation: HAMSTER, LIVER, S-9, AROCLOR 1254, Method: STANDARD PLATE
[5] = Test System: AMES SALMONELLA TYPHIMURIUM, Strain/Indicator: TA100, Metabolic Activation: NONE, Method: STANDARD PLATE
[6] = Test System: AMES SALMONELLA TYPHIMURIUM, Strain/Indicator: TA100, Metabolic Activation: RAT, LIVER, S-9, AROCLOR 1254, Method: STANDARD PLATE
[7] = Test System: AMES SALMONELLA TYPHIMURIUM, Strain/Indicator: TA1535, Metabolic Activation: HAMSTER, LIVER, S-9, AROCLOR 1254, Method: STANDARD PLATE
[8] = Test System: AMES SALMONELLA TYPHIMURIUM, Strain/Indicator: TA1535, Metabolic Activation: NONE, Method: STANDARD PLATE
[9] = Test System: AMES SALMONELLA TYPHIMURIUM, Strain/Indicator: TA1535, Metabolic Activation: RAT, LIVER, S-9, AROCLOR 1254, Method: STANDARD PLATE
[10] = Test System: AMES SALMONELLA TYPHIMURIUM, Strain/Indicator: TA1537, Metabolic Activation: HAMSTER, LIVER, S-9, AROCLOR 1254, Method: STANDARD PLATE
[11] = Test System: AMES SALMONELLA TYPHIMURIUM, Strain/Indicator: TA1537, Metabolic Activation: NONE, Method: STANDARD PLATE
[12] = Test System: AMES SALMONELLA TYPHIMURIUM, Strain/Indicator: TA1537, Metabolic Activation: RAT, LIVER, S-9, AROCLOR 1254, Method: STANDARD PLATE
[13] = Test System: MOUSE LYMPHOMA, Strain/Indicator: L5178Y (TK+/TK-), Metabolic Activation: NONE, Method: SUSPENSION/PLATE
[14] = Test System: MOUSE LYMPHOMA, Strain/Indicator: L5178Y (TK+/TK-), Metabolic Activation: RAT, LIVER, S-9, AROCLOR 1254, Method: SUSPENSION/PLATE

SMILES | mutagenic call [1] | mutagenic call [2] | mutagenic call [3] | mutagenic call [4] | mutagenic call [5] | mutagenic call [6] | mutagenic call [7] | mutagenic call [8] | mutagenic call [9] | mutagenic call [10] | mutagenic call [11] | mutagenic call [12] | mutagenic call [13] | mutagenic call [14] | also measured
CCC(C)ON=O (stereo not drawn) | inactive; negative | inactive; negative | inactive; negative | inactive; negative | inactive; negative | inactive; negative | active; positive | inactive; negative | active; positive | inactive; negative | inactive; negative | inactive; negative | active; positive. reevaluation of results: positive | active; positive. reevaluation of results: positive | –
Cn1c([N+](=O)[O-])nc2c3cccnc3ccc21 | – | – | – | – | – | – | – | – | – | – | – | – | – | – | mutagenic call (Test System: AMES SALMONELLA TYPHIMURIUM, Strain/Indicator: TA98(1,8-DNP6), Metabolic Activation: NONE, Method: PREINCUBATION): inactive; negative; mutagenic call (Test System: AMES SALMONELLA TYPHIMURIUM, Strain/Indicator: TA98, Metabolic Activation: NONE, Method: PREINCUBATION): active; positive; mutagenic call (Test System: AMES SALMONELLA TYPHIMURIUM, Strain/Indicator: YG1024, Metabolic Activation: NONE, Method: PREINCUBATION): active; positive; mutagenic call (Test System: E. COLI, Strain/Indicator: CC109, Metabolic Activation: NONE, Method: STANDARD PLATE): active; positive; mutagenic call (Test System: E. COLI, Strain/Indicator: CC109PYG219, Metabolic Activation: NONE, Method: STANDARD PLATE): active; positive; mutagenic call (Test System: E. COLI, Strain/Indicator: DJ3107, Metabolic Activation: NONE, Method: STANDARD PLATE): inactive; negative; mutagenic call (Test System: E. COLI, Strain/Indicator: DJ3108, Metabolic Activation: NONE, Method: STANDARD PLATE): active; positive; mutagenic call (Test System: E. COLI, Strain/Indicator: DJ3109, Metabolic Activation: NONE, Method: STANDARD PLATE): active; positive; mutagenic call (Test System: E. COLI, Strain/Indicator: DJ3110, Metabolic Activation: NONE, Method: STANDARD PLATE): inactive; negative; mutagenic call (Test System: E. COLI, Strain/Indicator: DJ3111, Metabolic Activation: NONE, Method: STANDARD PLATE): inactive; negative; mutagenic call (Test System: E. COLI, Strain/Indicator: DJ3207, Metabolic Activation: NONE, Method: STANDARD PLATE): inactive; negative; mutagenic call (Test System: E. COLI, Strain/Indicator: DJ3208, Metabolic Activation: NONE, Method: STANDARD PLATE): active; positive; mutagenic call (Test System: E. COLI, Strain/Indicator: DJ3209, Metabolic Activation: NONE, Method: STANDARD PLATE): active; positive; mutagenic call (Test System: E. COLI, Strain/Indicator: DJ3211, Metabolic Activation: NONE, Method: STANDARD PLATE): inactive; negative
CCC/C=N/O | inactive; negative | inactive; negative | inactive; negative | inactive; negative | inactive; negative | inactive; negative | inactive; negative | inactive; negative | inactive; negative | inactive; negative | inactive; negative | inactive; negative | active; positive. reevaluation of results: positive | inactive; negative. reevaluation of results: negative | mutagenic call (Test System: AMES SALMONELLA TYPHIMURIUM, Strain/Indicator: TA1538, Metabolic Activation: HAMSTER, LIVER, S-9, AROCLOR 1254, Method: STANDARD PLATE): inactive; negative; mutagenic call (Test System: AMES SALMONELLA TYPHIMURIUM, Strain/Indicator: TA1538, Metabolic Activation: NONE, Method: STANDARD PLATE): inactive; negative; mutagenic call (Test System: AMES SALMONELLA TYPHIMURIUM, Strain/Indicator: TA1538, Metabolic Activation: RAT, LIVER, S-9, AROCLOR 1254, Method: STANDARD PLATE): inactive; negative
Cc1cc2ccc3cc4ccccc4c4ccc(c1)c2c34 | – | – | – | – | – | – | – | – | – | – | – | – | – | – | mutagenic call (Test System: AMES SALMONELLA TYPHIMURIUM, Strain/Indicator: TA100, Metabolic Activation: RAT, INTACT HEPATOCYTES, AROCLOR 1254, Method: PREINCUBATION): active; positive; mutagenic call (Test System: AMES SALMONELLA TYPHIMURIUM, Strain/Indicator: TA100, Metabolic Activation: RAT, NADPH-FORTIFIED HOMOGENIZED HEPATOCYTES, AROCLOR 1254, Method: PREINCUBATION): active; positive
O=c1[nH]c(=O)c2[nH]cnc2[nH]1 | – | – | – | – | – | – | – | – | – | – | – | – | inactive; negative | – | –
